Like-named read-outs stand apart in the source and are kept apart here.
Test system: Dengue-2 (Strain New Guinea C)
Experiment: Viral yield assay in Vero cells
Format: cell-based
Conditions: Dengue virus, read-out: Activity (anti-dengue 2 viral activity, EC50 class)
Experimental: Compounds that were active in the primary screen were tested for activity in viral yield assays. […] Vero cells in 12-well plates were infected with dengue-2 virus at a multiplicity of infection (MOI) of 0.1, treated with compound (or DMSO as a control), incubated at 37° C., harvested 48 hours post infection and titered on Vero cells as described above. The EC50 was calculated through ExcelFit. Activities against other serotypes of dengue virus were determined in a similar way.

[1] = Vero cells, MOI 0.1, harvested 48 hours post infection

SMILES | EC50 [1] | EC50 (Vero, 48 h)
COc1cc(C(=O)Nc2cc(-c3nc4ccccc4s3)ccc2Cl)cc(OC)c1OC [Compound 70, N-(5-Benzothiazol-2-yl-2-chloro-phenyl)-3,4,5-trimethoxy-benzamide] | > 25 µM | –
Cc1ccc2nc(-c3ccc(NC(=O)c4ccc(CN5CCOCC5)cc4)cc3)sc2c1 [Compound 29, N-[4-(6-Methyl-benzothiazol-2-yl)-phenyl]-4-morpholin-4-ylmethyl-benzamide] | 10 to 25 µM | –
CCOC(=O)N1CCN(S(=O)(=O)c2ccc(C(=O)Nc3ccccc3-c3nc4ccccc4s3)cc2)CC1 [Compound 47, 4-[4-(2-Benzothiazol-2-yl-phenylcarbamoyl)-benzenesulfonyl]-piperazine-1-carboxylic acid ethyl ester] | > 25 µM | –
Cc1ccc(-c2nc3ccccc3s2)cc1NC(=O)c1ccc2c(c1)OCO2 [Compound 121, Benzo[1,3]dioxole-5-carboxylic acid (5-benzothiazol-2-yl-2-methyl-phenyl)-amide] | – | > 25 µM
O=C(Nc1ccccc1-c1nc2ccccc2s1)c1ccc([N+](=O)[O-])cc1Cl [Compound 98, N-(2-Benzothiazol-2-yl-phenyl)-2-chloro-4-nitro-benzamide] | > 25 µM | –
O=C(Nc1ccc(-c2nc3ccccc3s2)c(O)c1)c1ccccc1 [Compound 59, N-(4-Benzothiazol-2-yl-3-hydroxy-phenyl)-benzamide] | > 25 µM | –
O=C(Nc1ccc(-c2nc3ccccc3s2)cc1)c1cc(I)ccc1I [Compound 44, N-(4-Benzothiazol-2-yl-phenyl)-2,5-diiodo-benzamide] | > 25 µM | –
COc1ccc(C(=O)Nc2ccccc2-c2nc3ccccc3s2)cc1[N+](=O)[O-] [Compound 113, N-(2-Benzothiazol-2-yl-phenyl)-4-methoxy-3-nitro-benzamide] | > 25 µM | –
O=C(Nc1ccccc1-c1nc2ccccc2s1)c1cccc(Cl)c1Cl [Compound 97, N-(2-Benzothiazol-2-yl-phenyl)-2,3-dichloro-benzamide] | > 25 µM | –
CC(=O)Nc1ccc(C(=O)Nc2ccc(-c3nc4ccc(C)cc4s3)cc2)cc1 [Compound 80, 4-Acetylamino-N-[4-(6-methyl-benzothiazol-2-yl)-phenyl]-benzamide] | > 25 µM | –
Cc1ccc(C(=O)O)c(C(=O)Nc2ccc(-c3nc4ccc(C)cc4s3)cc2)c1 [Compound 8, 4-Methyl-N-[4-(6-methyl-benzothiazol-2-yl)-phenyl]-phthalamic acid] | < 1 µM | –
Cc1cc(C(=O)Nc2ccc(-c3nc4ccccc4s3)c(Cl)c2)ccc1[N+](=O)[O-] [Compound 119, N-(4-Benzothiazol-2-yl-3-chloro-phenyl)-3-methyl-4-nitro-benzamide] | > 25 µM | –
O=C(Nc1cc(-c2nc3ccccc3s2)ccc1Cl)c1ccccc1[N+](=O)[O-] [Compound 67, N-(5-Benzothiazol-2-yl-2-chloro-phenyl)-2-nitro-benzamide] | > 25 µM | –
COc1cccc(OC)c1C(=O)Nc1cccc(-c2nc3ccccc3s2)c1 [Compound 13, N-(3-Benzothiazol-2-yl-phenyl)-2,6-dimethoxy-benzamide] | 1 to 10 µM | –
Cc1c(NC(=O)c2ccccc2F)cccc1-c1nc2ccccc2s1 [Compound 66, N-(3-Benzothiazol-2-yl-2-methyl-phenyl)-2-fluoro-benzamide] | > 25 µM | –
COc1ccc(C(=O)Nc2ccccc2-c2nc3ccccc3s2)cc1OC [Compound 14, N-(2-Benzothiazol-2-yl-phenyl)-3,4-dimethoxy-benzamide] | 1 to 10 µM | –
Cc1ccc2nc(-c3ccc(NC(=O)c4ccc(S(=O)(=O)N5CCc6ccccc65)cc4)cc3)sc2c1 [Compound 41, 4-(2,3-Dihydro-indole-1-sulfonyl)-N-[4-(6-methyl-benzothiazol-2-yl)-phenyl]-benzamide] | > 25 µM | –

SMILES | EC50 [1] | EC50 (Vero, 48 h)
Cc1c(NC(=O)c2cc([N+](=O)[O-])ccc2Cl)cccc1-c1nc2ccccc2s1 [Compound 63, N-(3-Benzothiazol-2-yl-2-methyl-phenyl)-2-chloro-5-nitro-benzamide] | > 25 µM | –
COc1cc(C(=O)Nc2ccc(-c3nc4ccccc4s3)cc2)cc(OC)c1OC [Compound 48, N-(4-Benzothiazol-2-yl-phenyl)-3,4,5-trimethoxy-benzamide] | > 25 µM | –
O=C(Nc1ccc(-c2nc3ccccc3s2)c(Cl)c1)c1cccc([N+](=O)[O-])c1 [Compound 120, N-(4-Benzothiazol-2-yl-3-chloro-phenyl)-3-nitro-benzamide] | > 25 µM | –
CN(C)c1ccccc1C(=O)Nc1ccc(-c2nc3ccccc3s2)cc1 [Compound 10, N-(4-Benzothiazol-2-yl-phenyl)-2-dimethylamino-benzamide] | < 1 µM | –
COc1cc(OC)cc(C(=O)Nc2ccccc2-c2nc3ccccc3s2)c1 [Compound 104, N-(2-Benzothiazol-2-yl-phenyl)-3,5-dimethoxy-benzamide] | > 25 µM | –
Cc1ccc2nc(-c3ccc(NC(=O)c4cccc(S(=O)(=O)N5CCN(C)CC5)c4)cc3)sc2c1 [Compound 9, N-[4-(6-Methyl-benzothiazol-2-yl)-phenyl]-3-(4-methyl-piperazine-1-sulfonyl)-benzamide] | < 1 µM | –
COc1ccc(C(=O)Nc2ccc(Cl)c(-c3nc4ccccc4s3)c2)cc1OC [Compound 32, N-(3-Benzothiazol-2-yl-4-chloro-phenyl)-3,4-dimethoxy-benzamide] | 10 to 25 µM | –
Cc1c(NC(=O)c2cc(-n3cnnc3)ccc2Cl)cccc1-c1nc2ccccc2s1 [Compound 125, N-(3-Benzothiazol-2-yl-2-methyl-phenyl)-2-chloro-5-[1,2,4]triazol-4-yl-benzamide] | – | > 25 µM
O=C(Nc1ccc(-c2nc3ccccc3s2)cc1)c1ccc2c(c1)OCCO2 [Compound 2, 2,3-Dihydro-benzo[1,4]dioxine-6-carboxylic acid (4-benzothiazol-2-yl-phenyl)-amide] | < 1 µM | –
COc1cccc(OC)c1C(=O)Nc1ccc(-c2nc3ccccc3s2)cc1 [Compound 95, N-(4-Benzothiazol-2-yl-phenyl)-2,6-dimethoxy-benzamide] | > 25 µM | –
Cc1ccc(-c2nc3ccccc3s2)cc1NC(=O)c1ccc(F)cc1 [Compound 50, N-(5-Benzothiazol-2-yl-2-methyl-phenyl)-4-fluoro-benzamide] | > 25 µM | –
COc1cc(C(=O)Nc2cccc(-c3nc4ccccc4s3)c2C)cc(OC)c1OC [Compound 69, N-(3-Benzothiazol-2-yl-2-methyl-phenyl)-3,4,5-trimethoxy-benzamide] | > 25 µM | –
O=C(Nc1ccc(-c2nc3ccccc3s2)cc1)c1c(F)c(F)c(F)c(F)c1F [Compound 36, N-(4-Benzothiazol-2-yl-phenyl)-2,3,4,5,6-pentafluoro-benzamide] | 10 to 25 µM | –
COc1ccc(C(=O)Nc2cccc(-c3nc4ccccc4s3)c2C)cc1[N+](=O)O [Compound 64, N-(3-Benzothiazol-2-yl-2-methyl-phenyl)-4-methoxy-3-nitro-benzamide] | > 25 µM | –
Cc1ccccc1C(=O)Nc1ccc(-c2nc3ccccc3s2)c(O)c1 [Compound 23, N-(4-Benzothiazol-2-yl-3-hydroxy-phenyl)-2-methyl-benzamide] | 10 to 25 µM | –
O=C(Nc1ccccc1-c1nc2ccccc2s1)c1cccc(I)c1 [Compound 103, N-(2-Benzothiazol-2-yl-phenyl)-3-iodo-benzamide] | > 25 µM | –
O=C(Nc1ccc(O)c(-c2nc3ccccc3s2)c1)c1ccccc1F [Compound 57, N-(3-Benzothiazol-2-yl-4-hydroxy-phenyl)-2-fluoro-benzamide] | > 25 µM | –
